# Laboratory results from US20190083497A1, “MODULATION OF BLOOD BRAIN BARRIER PERMEABILITY” (Cornell University, priority 2008, published 2019).
# Tests used:
# Assay type in all cases: in vivo, mouse
# [1] = tested on: EAE-induced mice; assay: EAE induction and scoring (MOG35-55/CFA + pertussis toxin); conditions: wild type mice; 2 mg/kg (1 mg/kg s.c. and 1 mg/kg i.p.) in 45% DMSO, 1 day prior to and daily for 30 days; vs DMSO alone
# Protocol: C57BL/6 and tcrα^−/− mice on the C57BL/6 background were purchased from The Jackson Laboratories. Mice were bred and housed under specific pathogen-free conditions at Cornell University or the University of Turku. For adenosine receptor blockade experiments, mice were given drinking water supplemented with 0.6 g/L of caffeine (Sigma) or 2 mg/kg SCH58261 (1 mg/kg s.c. and 1 mg/kg i.p.) in DMSO (45% vol. in PBS) or 45% DMSO alone starting 1 day before EAE induction and continuing throughout the experiment. All procedures performed on mice were approved by the relevant animal review committee.
# EAE was induced by subjecting mice to the myelin oligodendrocyte glycoprotein (“MOG”) EAE-inducing regimen as described in Swanborg, “Experimental Autoimmune Encephalomyelitis in Rodents as a Model for Human Demyelinating Disease,” Clin. Immunol. […] Briefly, a 1:1 emulsion of MOG35-55 peptide (3 mg/ml in PBS) (Invitrogen) and complete Freund's adjuvant (CFA, Sigma) was injected subcutaneously (50 μl) into each flank. Pertussis toxin (PTX, 20 ng) (Biological Laboratories Inc.) was given intravenously (200 μl in PBS) at the time of immunization and again 2 days later. Mice were scored daily for EAE based on disease symptom severity; 0=no disease, 0.5 -1=weak/limp tail, 2=limp tail and partial hind limb paralysis, 3=total hind limb paralysis, 4=both hind limb and fore limb paralysis, 5=death. Mice with a score of 4 were euthanized.
# Wild type mice were given 1 mg/kg of SCH58261 in DMSO or DMSO alone both i.p. and s.c. (for a total of 2 mg/kg) 1 day prior to EAE induction and daily for 30 days throughout the course of the experiment (FIG. 7C).
# [2] = tested on: CNS lymphocyte infiltration; assay: CD4+ infiltrating lymphocytes in brain and spinal cord after EAE induction (immunohistochemistry); conditions: wild type mice, day 15 post-EAE induction; 2 mg/kg daily; vs DMSO treated mice
# Protocol: FIGS. 7A-7D show adenosine receptor blockade protects mice from EAE development. […] Results are from one experiment (n=5 mice per group). […] Samples were run in triplicate; error bars represent the standard error of the mean. […] Eight anatomically similar fields per brain and 4 fields per spinal cord per mouse were analyzed at 10×magnification (n=4 mice). Error bars represent the standard error of the mean.
# Anesthetized mice were perfused with PBS, and brains, spleens, and spinal cords were isolated and snap frozen in Tissue Tek-OCT medium. Five μm sections (brains in a sagittal orientation) were affixed to Supefrost/Plus slides (Fisher), fixed in acetone, and stored at −80° C. […]
# (§1) As CD73 catalyzes the breakdown of AMP to adenosine and ARs are expressed in the CNS (Tsutsui et al., “A1 Adenosine Receptor Upregulation and Activation Attenuates Neuroinflammation and Demyelination in a Model of Multiple Sclerosis,” J. Neurosci. 24:1521-1529 (2004)); Rosi et al., The Influence of Brain Inflammation Upon Neuronal Adenosine A2B Receptors,” J. Neurochem. 86:220-227 (2003), which are hereby incorporated by reference in their entirety), it was next determined if AR signaling is important during EAE progression. […] Since CD73 is highly expressed on the choroid plexus (FIG. 6C), it was next determined if ARs are also expressed on the choroid plexus. […]
# [3] = tested on: ICAM-1; assay: ICAM-1 expression at the choroid plexus after EAE induction (immunohistochemistry); conditions: wild type mice, day 15 post-EAE induction; 2 mg/kg daily; vs DMSO
# Protocol: Mice were treated with the A2a adenosine receptor antagonist SCH58261 2 mg/kg (1 mg/kg given s.c. and 1 mg/kg given i.p.) in DMSO (n=4 mice/group) or DMSO alone (n=5 mice/group) 1 day prior to and daily up to day 30 following EAE induction. […] Frozen tissue sections from day 15 post-EAE induction in SCH58261 and DMSO treated mice were examined for ICAM-1 expression at the choroid plexus. WT treated DMSO (left) or SCH58261 (right) and stained for ICAM-1 (red staining, white arrows) and DAPI (blue, nuclei) at 40× magnification. Images are from 4 separate mice.
# Anesthetized mice were perfused with PBS, and brains, spleens, and spinal cords were isolated and snap frozen in Tissue Tek-OCT medium. […]
# as §1
# [4] = tested on: blood brain barrier; assay: FITC-Dextran extravasation through the brain endothelium; conditions: wild type mice (FIG. 16)
# Protocol: In order to examine the effects of caffeine, a general adenosine receptor antagonist, on blood brain barrier permeability, mice were fed caffeine for several days and then injected with FITC Dextran, commonly used to assess endothelial permeability.
# More particularly, mice were fed 0.6 g/l caffeine (Sigma, St. Louis, Mo.) in water or regular water ad lib for five days. Mice were injected IP with FITC Dextran (10,000 MW, Molecular Probes, Eugene, Oreg.) and after 30 minutes mice were perfused with ice cold PBS via the left ventricle. Brains were removed and snap frozen in OCT (Tissue Tek, Torrance, Calif.) and stored at −80° C. until sectioning. Tissue sections (5 μm) were stained with hematoxylin for light microscopy and with DAPI for a fluorescent counterstain.
structure (smiles),measurement,setting,value
Nc1nc2c(cnn2CCc2ccccc2)c2nc(-c3ccco3)nn12 [SCH58261],EAE development (mean EAE score),[1],dramatically protected against EAE development
same,frequency of CD4 lymphocytes in the brain and spinal cord,[2],significantly lower frequency of CD4 lymphocytes in the brain and spinal cord
same,ICAM-1 up regulation on the choroid plexus,[3],prevented the up regulation of ICAM-1
same,FITC-Dextran extravasation across the blood brain barrier,[4],inhibit FITC-Dextran extravasation
